# Where “and” joins values, the source holds several entries; their conditions need not be identical. Equal values may be shown once.
# Test system: 422866-222-R5-J1-PDC spheroid viability
# Experiment: Anticancer human tumor 422866-222-R5-J1-PDC patient-derived pancreatic adenocarcinoma cell line growth inhibition [CLK]
# Conditions: spheroids with HUVEC and MSC; for viability, T/C: stronger effect = lower value
# Text: A high-throughput screen of multi-cell type tumor spheroids was designed to identify active combinations of […] and targeted small molecules. Complex spheroids include a stromal component modeled by human endothelial cells (HUVEC) and fibroblasts modeled by human mesenchymal stem cells (MSCs). The concentration ranges selected for each drug and investigational agent were based upon clinically achievable concentrations if the clinical Cmax of the agent was known.
# Compounds. The drugs and investigational agents: cirtuvivint (SM08502; NSC835563), CC-671 (NSC850746), vemurafenib (NSC761431), tapotoclax (NSC804041), sotorasib (NSC818433), adagrasib (NSC831453), MRTX-1133 (NSC836407), BAY2416964 (NSC825713), copanlisib (NSC816437), inavolisib (NSC800729), abemaciclib (NSC768073), osimertinib (NSC779217), entinostat (NSC756642), eltanexor (KPT-8602, NSC794443), venetoclax (NSC766270), ceralasertib (NSC777638), bortezomib (NSC756655), olaparib (NSC753686), talazoparib (NSC767125), alisertib (NSC759677), peposertib (NSC802822), gemcitabine (NSC613327), 5-fluorouracil (NSC19893), SN-38 (NSC673596), oxaliplatin (NSC266046), paclitaxel (NSC125973), and doxorubicin (NSC123127), were obtained from the National Cancer Institute (NCI) Developmental Therapeutics Program Chemical Repository. The FDA-approved anticancer drug set is available from the Developmental Therapeutics Program at https://dtp.cancer.gov/organization/dscb/obtaining/available plates.htm. […] The stock solutions were prepared in dimethyl sulfoxide (DMSO, Sigma-Aldrich, St. Louis, MO, cat. D2650), except for the platinum complexes which were prepared in saline (Quality Biological, Gaithersburg, MD, cat. 114-055-101), at 800-fold the tested concentration and stored at -70 degrees C prior to their use. All drugs and investigational agents were tested over a range starting from a high concentration at or near the clinical Cmax and decreasing in half-log increments. If the clinical Cmax for an agent had not been determined, the highest concentration tested was 10 microM.
# Cell Culture. All cells were maintained in an incubator at 37 degrees C and 5% CO2 with 95% humidity. The PDC lines were cultured according to standard operating procedures established by the NCI PDMR. Briefly, all PDCs were thawed and cultured in Matrigel-coated flasks prepared with a working solution of 1X Ham's F-12 nutrient mix, without supplementation (Invitrogen, Waltham, MA, cat. 11765054), 100 U/mL penicillin-streptomycin (Invitrogen, cat. 15140122), and 2.5% Matrigel (Corning Inc., Corning, NY, cat. 354248) for the first three passages. The 947758-054-R-J2-PDC line was cultured in 6B/Colon 1A media, which includes advanced DMEM/F-12 (Thermo Fisher Scientific, cat. 12634028), 10 mM HEPES (Thermo Fisher Scientific, cat. 15630080), 1X GlutaMAX supplement (Thermo Fisher Scientific, cat. 35050061), 0.1 mg/mL primocin (InvivoGen, cat. ant-pm-2), 10% defined fetal bovine serum, heat inactivated (HyClone Laboratories Inc., cat. SH30070.03HI), 1.25 mM N-Acetyl-L-cysteine (Sigma-Aldrich, cat. A9165), 10 mM nicotinamide (Sigma-Aldrich, cat. N0636), 1X B-27 supplement (Thermo Fisher Scientific, cat. 17504044), 1X N-2 supplement (Thermo Fisher Scientific, cat. 17502048), and 10 microM Y-27632 dihydrochloride (Tocris Bioscience, cat. 1254). The 876862-298-R-J1-PDC was cultured in 6E media, which includes all 6B/Colon 1A media components plus 50% L-WRN conditioned media (ATCC, cat. CRL-3276), 50 ng/mL recombinant human EGF recombinant protein (hEGF; Thermo Fisher Scientific, cat. PHG0311), 10 ng/mL recombinant human fibroblast growth factor 10 (hGFG-10; PeproTech, cat. 100-26), 1 ng/mL recombinant human fibroblast growth factor 2 (hFGF-2; PeproTech, cat. 100-18B), and 1 µM prostaglandin E2 (PGE2; Tocris, cat. 2296). The 227483-062-R1-J1-PDC line was cultured in Panc media, containing all 6E components except hFGF-2, with the addition of 500 nM SB-431542 (Selleckchem, cat. S1067) and 10 nM gastrin (Tocris, cat. 3006). […]
# [1] = curve of first compound, second compound 0.0316 µM
# [2] = curve of first compound, second compound 0.1 µM
# [3] = curve of first compound, second compound 0.316 µM
# [4] = curve of first compound, second compound 1 µM
# [5] = curve of first compound, second compound 3.16 µM
# [6] = curve of first compound, second compound 10 µM
# [7] = second compound 0.0316 µM, first compound 0.0316 µM
# [8] = second compound 0.0316 µM, first compound 0.1 µM
# [9] = second compound 0.0316 µM, first compound 0.316 µM
# [10] = second compound 0.0316 µM, first compound 1 µM
# [11] = second compound 0.0316 µM, first compound 3.16 µM
# [12] = second compound 0.0316 µM, first compound 10 µM
# [13] = second compound 0.1 µM, first compound 0.0316 µM
# [14] = second compound 0.1 µM, first compound 0.1 µM
# [15] = second compound 0.1 µM, first compound 0.316 µM
# [16] = second compound 0.1 µM, first compound 1 µM
# [17] = second compound 0.1 µM, first compound 3.16 µM
# [18] = second compound 0.1 µM, first compound 10 µM
# [19] = second compound 0.316 µM, first compound 0.0316 µM
# [20] = second compound 0.316 µM, first compound 0.1 µM
# [21] = second compound 0.316 µM, first compound 0.316 µM
# [22] = second compound 0.316 µM, first compound 1 µM
# [23] = second compound 0.316 µM, first compound 3.16 µM
# [24] = second compound 0.316 µM, first compound 10 µM
# [25] = second compound 1 µM, first compound 0.0316 µM
# [26] = second compound 1 µM, first compound 0.1 µM
# [27] = second compound 1 µM, first compound 0.316 µM
# [28] = second compound 1 µM, first compound 1 µM
# [29] = second compound 1 µM, first compound 3.16 µM
# [30] = second compound 1 µM, first compound 10 µM
# [31] = second compound 3.16 µM, first compound 0.0316 µM
# [32] = second compound 3.16 µM, first compound 0.1 µM
# [33] = second compound 3.16 µM, first compound 0.316 µM
# [34] = second compound 3.16 µM, first compound 1 µM
# [35] = second compound 3.16 µM, first compound 3.16 µM
# [36] = second compound 3.16 µM, first compound 10 µM
# [37] = second compound 10 µM, first compound 0.0316 µM
# [38] = second compound 10 µM, first compound 0.1 µM
# [39] = second compound 10 µM, first compound 0.316 µM
# [40] = second compound 10 µM, first compound 1 µM
# [41] = second compound 10 µM, first compound 3.16 µM
# [42] = second compound 10 µM, first compound 10 µM
# 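Also: spheroids exposed to agents for seven days before readout.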
structure (smiles),measurement,setting,value
COC1C=CCC(C)C(C)S(=O)(=O)NC(=O)c2ccc3c(c2)N(CC2CCC21)CC1(CCCc2cc(Cl)ccc21)CO3 (stereo unspecified) + CN1CCN(c2cc(C(=O)Nc3cc4cc(-c5cnn(C)c5)ccc4cn3)ccn2)CC1,IC50,[1],> 10000 nM
same,IC50,[2],> 10000 nM
same,IC50,[3],> 10000 nM
same,IC50,[4],< 31.6 nM
same,IC50,[5],< 31.6 nM
same,IC50,[6],< 31.6 nM
same,"viability, T/C",[7],102%
same,"viability, T/C",[8],102%
same,"viability, T/C",[9],113%
same,"viability, T/C",[10],98.1%
same,"viability, T/C",[11],97%
same,"viability, T/C",[12],76.8%
same,"viability, T/C",[13],131%
same,"viability, T/C",[14],104%
same,"viability, T/C",[15],105%
same,"viability, T/C",[16],107%
same,"viability, T/C",[17],114%
same,"viability, T/C",[18],94.7%
same,"viability, T/C",[19],103%
same,"viability, T/C",[20],92.8%
same,"viability, T/C",[21],104%
same,"viability, T/C",[22],99%
same,"viability, T/C",[23],113%
same,"viability, T/C",[24],105%
same,"viability, T/C",[25],29.4%
same,"viability, T/C",[26],28.8%
same,"viability, T/C",[27],38.5%
same,"viability, T/C",[28],28.9%
same,"viability, T/C",[29],38.7%
same,"viability, T/C",[30],39.2%
same,"viability, T/C",[31],8.76%
same,"viability, T/C",[32],9.13%
same,"viability, T/C",[33],9.74%
same,"viability, T/C",[34],7.9%
same,"viability, T/C",[35],9.36%
same,"viability, T/C",[36],5.17%
same,"viability, T/C",[37],2.4%
same,"viability, T/C",[38],1.91%
same,"viability, T/C",[39],1.69%
same,"viability, T/C",[40],1.81%
same,"viability, T/C",[41],2.33%
same,"viability, T/C",[42],3.52%
Nc1ccn(C2OC(CO)C(O)C2(F)F)c(=O)n1 (stereo unspecified) + CN1CCN(c2cc(C(=O)Nc3cc4cc(-c5cnn(C)c5)ccc4cn3)ccn2)CC1,IC50,[1],74.3 nM
same,IC50,[2],84.6 nM
same,IC50,[3],156 nM
same,IC50,[4],< 31.6 nM
same,IC50,[5],< 31.6 nM
same,IC50,[6],< 31.6 nM
same,"viability, T/C",[7],62.9%
same,"viability, T/C",[8],46.5%
same,"viability, T/C",[9],37.8%
same,"viability, T/C",[10],42%
same,"viability, T/C",[11],40.3%
same,"viability, T/C",[12],38.1%
same,"viability, T/C",[13],74.4%
same,"viability, T/C",[14],44.9%
same,"viability, T/C",[15],57.2%
same,"viability, T/C",[16],45.2%
same,"viability, T/C",[17],38.7%
same,"viability, T/C",[18],37.5%
same,"viability, T/C",[19],66.9%
same,"viability, T/C",[20],50.9%
same,"viability, T/C",[21],46.9%
same,"viability, T/C",[22],55.9%
same,"viability, T/C",[23],45.6%
same,"viability, T/C",[24],46%
same,"viability, T/C",[25],25.9%
same,"viability, T/C",[26],20.6%
same,"viability, T/C",[27],21.3%
same,"viability, T/C",[28],16.7%
same,"viability, T/C",[29],19.1%
same,"viability, T/C",[30],14.9%
same,"viability, T/C",[31],8.63%
same,"viability, T/C",[32],8.77%
same,"viability, T/C",[33],10.5%
same,"viability, T/C",[34],9.38%
same,"viability, T/C",[35],10.2%
same,"viability, T/C",[36],10.9%
same,"viability, T/C",[37],1.24%
same,"viability, T/C",[38],1.59%
same,"viability, T/C",[39],1.16%
same,"viability, T/C",[40],1.57%
same,"viability, T/C",[41],4.23%
same,"viability, T/C",[42],3.93%
O=c1[nH]cc(F)c(=O)[nH]1,"viability, T/C",compound 0.0316 µM,101% and 102%
same,"viability, T/C",compound 0.1 µM,95.5% and 95.8%
same,"viability, T/C",compound 0.316 µM,91.1% and 85.6%
same,"viability, T/C",compound 1 µM,98% and 85.2%
same,"viability, T/C",compound 3.16 µM,65.5% and 77.1%
same,"viability, T/C",compound 10 µM,90.2% and 74.7%
same,IC50,curve of compound,> 10000 nM

# From PubChem BioAssay AID2060603 (Molecular Pharmacology Branch, DTP, NCI, 2025)
